# In patent US12117442B2, “Methods of screening compounds” (Depixus SAS, priority 2022, dated 2024):
# Where two headings read alike, the source gives them in different places.
# Columns and labels:
# [1] = system: wild type (WT) Bsu preQ1 riboswitch; test: Step constant-force experiments on WT preQ1 riboswitch; format: binding
# Excerpt: In a Constant-Force Experiment, the nucleic acid molecules are subjected to the same force for a certain amount of time before it is increased in a stepwise manner. The equilibrium force is the point at which the molecule spends equal time in both folded and unfolded states. Ligand binding at this force can cause a change in the dynamics of folding and unfolding.
# (§1) To study the molecular dynamics of the preQ1 riboswitch using the platform described herein, wild type (WT) Bsu riboswitch was attached to the flowcell as described in Example 1. A step constant-force experiments were then performed, where the molecule is kept at a constant force for a given amount of time before increasing the force in a stepwise manner from lower to higher forces (FIG. 3B). The z position of the bead was recorded and at forces closer to equilibrium, the molecule transitioned between the folded and unfolded state (FIG. 3B). The force was maintained constant for five minutes at the equilibrium force (where the molecule spends as much time in the unfolded versus folded state) and various concentrations of the preQ1 ligand were tested. The binding of the ligand to the structure (arrows shown in representative binding analysis curve of FIG. 3C) was monitored in real time and at the level of the single molecule. A binding which causes the structure to remain in the folded state for more than 3 seconds was recorded. The kon calculated by dividing the number of events observed when the ligand is bound to the RNA structure over the time of experiment at a given concentration of the ligand. The RNA is considered bound to a ligand (here preQ1 ligand) when it stays folded for longer than 3.3 seconds. By testing different concentrations, the kon of the molecule was measured (FIG. 3D). The koff is inverse of the length of time when the RNA structure is bound by a ligand. Accordingly, a duration, when the ligand left the RNA structure (star) as the RNA structure went back to rapid transition between folded and unfolded state, was observed. The duration of this folded state allows to measure the koff of the ligand (FIG. 3E). The kon is dependent on the ligand concentration whereas the koff is not. For each force, the raw data was fitted to two different states using Hidden Markov model (FIG. 3B), and the fraction of time for which each molecule is present at the folded state was calculated over the time at each force step. The fraction was plotted against the force for each step, and the equilibrium force (inflection point) was determined for each molecule when the molecule spent 50% of the time at each state (FIG. 3F). The half-width of the force can also be determined by calculating 1/e (e=Euler's number) on either side of the inflection point, which indicates the force range where the molecule is bistable and transitions from folded and unfolded state (FIG. 3F). The transition frequency was calculated for each of the force steps recorded and plotted again the normalized force, corresponding to the equilibrium force for each bead in control conditions (FIG. 3G).
# For the subsequent experiments, 1 mM Mg^2+ was added in all buffers.
# To study the effect of preQ1 ligand binding to the riboswitch, constant-force step experiments were performed with increasing concentration of preQ1 ligand (FIG. 3B).
# [2] = system: HIV-1 TAR; test: Ramp experiments (unfolding/refolding force) on HIV-TAR RNA; format: binding; conditions: for effect on unfolding force: adding increasing concentrations
# Excerpt: In a ramp experiment, the nucleic acid (e.g., RNA) molecules are subjected to multiple cycles of slowly increasing and/or decreasing force, and the value at which the molecule unfolds or refolds can be determined from a sudden change in the bead's position. Upon binding, a ligand can cause a change in the unfolding or refolding force if it stabilizes or destabilizes the RNA structure.
# A 59-nucleotide HIV-TAR RNA flanked by RNA/DNA duplexes was attached to a paramagnetic bead on one side and the flowcell on the other end.
# To investigate whether the platform can distinguish between different KD, three additional small molecules were used that are known to bind to the HIV-1 TAR structure with varying binding affinities (FIG. 2C-2E). […] Above 100 μM of Kanamycin, there is a widening of the force distribution (FIG. 2D).
# [3] = molecular target: HIV-1 TAR; conditions: known binder of HIV-1 TAR; cited from earlier work
# [4] = system: preQ1 riboswitch; test: Long constant-force experiments at 9.6 pN on preQ1 riboswitch; format: binding, Bsu
# Protocol: as §1, with “The koff is inverse of the length of time when the RNA structure is bound by a ligand. Accordingly, a duration, when the ligand left the RNA structure (star) as the RNA structure went back to rapid transition between folded and unfolded state, was observed. The duration of this folded state allows to measure the koff of the ligand (FIG. 3E). The kon is dependent on the ligand concentration whereas the koff is not.” left out, “The transition frequency was calculated for each of the force steps recorded and plotted again the normalized force, corresponding to the equilibrium force for each bead in control conditions (FIG. 3G).” left out
# [5] = molecular target: WT preQ1 riboswitch; test: Ramp analysis, WT preQ1 riboswitch; format: binding, Bsu; conditions: fit of high-force fraction
# Protocol: The WT preQ1 riboswitch was used as a reference (FIG. 4B). […] The peak around the reference force decreased while there was an increase in the proportion of cycles that have a higher unfolding force. The higher force cycles can represent the binding of the ligand and formation of the pseudoknot. The fraction of cycles that have an unfolding force greater than 95% confidence interval of each bead was calculated in control conditions (FIG. 4B). […] This is similar to the KD calculated in Example 2 from the constant force experiment at 9.6 pN.
# [6] = molecular target: preQ1 riboswitch C15U mutant; test: Ramp analysis, C15U mutant preQ1 riboswitch; format: binding, Bsu; conditions: fit of high-force fraction
# Excerpt: (§2) The preQ1 riboswitch has several point substitutions that modify affinity to the preQ1 ligand (FIG. 4A).
# (§3) Having established a reference point, the four different mutants were used to study the effect on preQ1 binding (FIG. 4C-4G). […] The difference could be due to the Mg^2+ used. Nonetheless, the platform was able to distinguish a 3-fold differences in KD, which is less apparent in platforms like SPR or fluorescent titration.
# [7] = molecular target: preQ1 riboswitch U7C + C15U mutant; test: Ramp analysis, U7C + C15U double mutant preQ1 riboswitch; format: binding, Bsu; conditions: fit of high-force fraction
# Excerpt: as §2, §3
# [8] = system: preQ1 riboswitch A10G mutant; test: Ramp analysis, A10G mutant preQ1 riboswitch; format: binding, Bsu
# Excerpt: as §2
# With this mutant, the whole distribution was shifted towards higher forces, instead of having two different fractions (FIG. 4E). […] The constant-force step experiment also reflected the changes in the equilibrium force in micromolar range (FIG. 4F).
# [9] = system: preQ1 riboswitch U6C mutant; test: Ramp analysis, U6C mutant preQ1 riboswitch; format: binding, Bsu; conditions: no KD from fitting maximum density or high-force density
# Excerpt: as §2
# [10] = molecular target: preQ1 riboswitch; conditions: comparison result obtained by smFRET; cited from earlier work
# [11] = system: preQ1 riboswitch C15U mutant; conditions: C15U versus wt; basis for selecting the mutant; cited from earlier work
# [12] = system: preQ1 riboswitch U7C + C15U mutant; conditions: U7C + C15U versus wt; basis for selecting the mutant; cited from earlier work
# [13] = system: preQ1 riboswitch A10G mutant; conditions: A10G versus wt; basis for selecting the mutant; cited from earlier work
# [14] = system: preQ1 riboswitch U6C mutant; conditions: U6C versus WT; basis for selecting the mutant; cited from earlier work
# [15] = system: pre-miR-21; test: Dicer binding to pre-miR-21 (unfolding force); conditions: 20 nM full-length Dicer without magnesium
# Protocol: (§4) Pre-miR-21 and pre-miR-21-bp mutants are used as substrates to measure the effect of Dicer on the folding kinetics. Dicer is a double-strand-specific ribonuclease that binds the pre-miRNAs and cleaves them to generate mature miRNAs. Adding 20 nM of full-length Dicer without magnesium causes the binding of the protein to the structure without further processing of the structure. […] Therefore, the platform described herein is useful for detecting interaction between an RNA scaffold and an RNA binding protein.
# [16] = system: pre-miR-21-bp mutant; test: Dicer binding to pre-miR-21-bp mutant; conditions: 20 nM full-length Dicer without magnesium; mutation abolishes bulge
# Protocol: as §4
# [17] = fit of changes in unfolding force, ramp experiments, read-out: calculated KD
# [18] = 1 μM preQ1 ligand, lesser extent than 1 mM Mg^2+
# [19] = increasing concentrations of preQ1, 1 mM Mg^2+ in buffers
molecule,measurement,setting,value
[Mg+2] [Mg^2+],effect on transition frequency at equilibrium force,"[1]; 1 mM Mg^2+ alone, no ligand",transition frequency decreased
same,effect on unfolding equilibrium force,"[1]; 1 mM Mg^2+ alone, no ligand",increased the unfolding equilibrium force
CCN[C@@H]1C[C@H](N)[C@@H](O[C@H]2OC(CN)=CC[C@H]2N)[C@H](O)[C@H]1O[C@H]1OC[C@](C)(O)[C@H](NC)[C@H]1O [Netilmicin],effect on unfolding force,[2],increase in the unfolding force
same,Kd,[2]; [17],~13.4 µM
same,Kd,[3],1400 nM
same,Ki,[3],~14 µM
NCc1c[nH]c2nc(N)[nH]c(=O)c12 [preQ1],effect of ligand and cation together,[1]; 1 μM preQ1 ligand plus 1 mM Mg^2+,additive effect
same,effect on transition frequency,[1]; [18],decreased transition frequency
same,effect on unfolding equilibrium force,[1]; [18],increased the unfolding equilibrium force
same,Kd,[1]; fit of equilibrium force at each concentration,162 nM
same,effect on equilibrium force,[1]; [19],increased equilibrium force
same,effect on transition frequency,[1]; [19],decreased the transition frequency
same,Kon,"[4]; 9.6 pN, fit of attachment rate",0.0015 ^−1 nM^−1
same,Koff,"[4]; 9.6 pN, one per mean time of ligand-bound event",0.11 s⁻¹
same,Kd,[4]; calculated by Koff/Kon,73 nM
same,Kd,[5],87.8 nM
same,Kd,[6],5.35 nM
same,Kd,[7],17.7 nM
same,increase in KD compared with WT,[8]; A10G versus WT,~400 fold
same,Kd,"[8]; A10G, fit of maximum unfolding force density for each bead",34.7 µM
same,ligand binding,[9],abolished the ligand binding
same,Kd,[10],134 nM
same,Effect of mutation on binding affinity,[11],Increase versus wt
same,Effect of mutation on binding affinity,[12],Greatly Increase versus wt
same,Effect of mutation on binding affinity,[13],Decrease versus wt
same,Effect of mutation on binding affinity,[14],Abolished versus WT
Dicer: double-strand-specific ribonuclease that binds the pre-miRNAs and cleaves them to generate mature miRNAs,effect of binding on unfolding force,[15],increase in the unfolding force
same,binding to mutant,[16],does not occur
N=C(N)NCCC[C@H](N)C(N)=O [argininamide],effect on unfolding and refolding force,[2]; 10 mM,increased both the unfolding and refolding force
same,effect on unfolding force,[2],increased the unfolding force
same,Kd,"[2]; fit of normalized force at maximum unfolding distribution for each bead, read-out: KD",5430 µM
"Cc1ccc2c(N)c(C(=O)Nc3cccc(C(F)(F)F)c3)sc2n1 [Compound 4, 3-Amino-6-methyl-N-(3-(trifluoromethyl)phenyl)thieno[2,3-b]pyridine-2-carboxamide]",effect on unfolding force,[2],decrease in the unfolding force
same,Kd,[2]; [17],2.99 µM
same,Kd,[3],2400 nM
